Experimental findings from patent publication US11858913B2, “Bicyclic pyridazinones and methods of use thereof” (ALIGOS THERAPEUTICS, INC., priority 2020, dated 2024) are described below.

By EC50 is commonly meant the concentration needed to bring the measured effect to its halfway point.

The target in this assay is T1, human thyroid receptor beta ligand-binding domain (LBD) (Homo sapiens, UniProt P10828).
T1 construct: purchased Invitrogen
T1 sequence (P10828 217-461 limits assumed): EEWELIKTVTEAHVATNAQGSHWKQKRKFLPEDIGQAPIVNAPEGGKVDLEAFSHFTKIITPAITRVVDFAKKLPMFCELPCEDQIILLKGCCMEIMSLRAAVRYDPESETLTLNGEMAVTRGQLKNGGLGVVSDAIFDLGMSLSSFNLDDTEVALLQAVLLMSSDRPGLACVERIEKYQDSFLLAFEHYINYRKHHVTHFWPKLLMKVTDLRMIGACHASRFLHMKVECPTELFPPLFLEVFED
As to the kind of experiment: THR Biochemical Assay (Assay 1): TR-FRET thyroid receptor beta coactivator assay. The settings on record: GST-tagged THR-beta LBD 1 nM, fluorescein SRC2-2 coactivator peptide 200 nM, 1 hr at rt, TR-FRET ratio 520:495; read-out: Assay 1 (EC50, THR-beta agonist activity). An excerpt:
The TR-FRET thyroid receptor beta coactivator assay was used with slight, optimized modifications of the manufacturer's protocol (Invitrogen). The assay uses a terbium-labeled anti-GST antibody, a glutathione-S-transferase (GST) tagged human thyroid receptor, beta or alpha, ligand-binding domain (LBD), and a fluorescein labeled SRC2-2 coactivator peptide. The antibody interacts with the LBD, where the agonist also binds, resulting in increased affinity for the SRC2-2 coactivator peptide causing energy transfer […] the acceptor fluorophore and a FRET emission shift from 495 to 520 nm. The energy transfer was detected as an increase in the fluorescence emission of the fluorescein acceptor, and a decrease in the fluorescence emission of the terbium donor. The assay was performed in a 384-well black plate in a final volume of 20 μL. Serial dilution of various test agonists was performed in DMSO (1% final DMSO concentration) and added to the test plate. […] The TR-FRET was then measured on a Victor multilabel reader (Perkin Elmer) using an excitation wavelength of 340 nm with emission filters of 495 nm and 520 nm. The assay was quantified by expressing a ratio (520:495) of the intensities, and the resulting activation curves; EC50 values were generated using a sigmoidal dose response (variable slope) equation in GraphPad™ Prism 8.0.
(In general: TR-FRET usually uses a lanthanide donor and a delayed reading to cut background.)

Regarding `CC1CCc2c(Oc3c(Cl)cc(-n4nc(N)c(=O)[nH]c4=O)cc3Cl)n[nH]c(=O)c21` (single isomer, unassigned) [Compound 1a, 6-amino-2-(3,5-dichloro-4-((7-methyl-1-oxo-2,5,6,7-tetrahydro-1H-cyclopenta[d]pyridazin-4-yl)oxy)phenyl)-1,2,4-triazine-3,5(2H,4H)-dione], the EC50 was < 50 nM.
For `CC1CCc2c(Oc3c(Cl)cc(-n4nc(N)c(=O)[nH]c4=O)cc3Cl)n[nH]c(=O)c21` (single isomer, unassigned) [Compound 1b, 6-amino-2-(3,5-dichloro-4-((7-methyl-1-oxo-2,5,6,7-tetrahydro-1H-cyclopenta[d]pyridazin-4-yl)oxy)phenyl)-1,2,4-triazine-3,5(2H,4H)-dione], the EC50 was in the range of 50 to 250 nM.
